Measurements from ChEMBL document CHEMBL3046147, “Synthesis and Herbicidal Activity of 1-Arylalkyl-3-pyrrolin-2-one Derivatives” (J Pestic Sci, 2000).

Columns and labels:
[1] = system: Echinochloa oryzicola; assay: Herbicide activity against Echinochloa oryzicola under greenhouse condition compound treated at 2 leaf-stage measured after 14 to 20 days; assay type: functional
[2] = system: Oryza sativa; assay: Phytotoxicity against two-leaf stage Oryza sativa cv. Nihonbare (rice) planted 3 cm depth measured after […]; assay type: organism-based; settings: in vivo
[3] = system: Echinochloa oryzicola; assay: Pre-emergence herbicide activity against Echinochloa oryzicola under greenhouse condition measured after 14 to 20 days; assay type: functional
[4] = system: Oryza sativa; assay: Phytotoxicity against two-leaf stage Oryza sativa cv. Nihonbare (rice) planted 1 cm depth measured after […]; assay type: organism-based; settings: in vivo
[5] = system: Sagittaria pygmaea; assay: Herbicide activity against Sagittaria pygmaea under greenhouse condition compound treated at 0.5 leaf-stage measured after 14 to 20 days; assay type: functional
[6] = system: Schoenoplectiella juncoides; assay: Herbicide activity against Schoenoplectiella juncoides under greenhouse condition compound treated at emergence-stage measured after 14 to 20 days; assay type: functional

Structure (SMILES) | MED [1] | MTD [2] | MED [3] | MTD [4] | MED [5] | MED [6]
CC1=C(c2ccccc2)C(=O)N(C(C)(C)c2csc3ccccc23)C1 | <5 g/acre | 10 g/acre | 2.5 g/acre | 2.5 g/acre | 80 g/acre | 80 g/acre
CC1=C(c2cccc([N+](=O)[O-])c2)C(=O)N(C(C)(C)c2nc3ccccc3s2)C1 | <5 g/acre | 80 g/acre | 160 g/acre | 80 g/acre | 160 g/acre | 160 g/acre
CC1=C(c2ccccc2)C(=O)N(C(C)(C)c2nc3ccccc3o2)C1 | 5 g/acre | 20 g/acre | 0.625 g/acre | 5 g/acre | 10 g/acre | 2.5 g/acre
COc1ccccc1C1=C(C)CN(C(C)(C)c2nc3ccccc3s2)C1=O | <5 g/acre | 5 g/acre | 5 g/acre | > 5 g/acre | 5 g/acre | 5 g/acre
CC1=C(c2ccccc2C(=O)O)C(=O)N(C(C)(C)c2nc3ccccc3s2)C1 | <5 g/acre | 20 g/acre | 160 g/acre | 40 g/acre | 160 g/acre | 160 g/acre
COc1cccc2sc(C(C)(C)N3CC(C)=C(c4ccccc4)C3=O)nc12 | <5 g/acre | 40 g/acre | 10 g/acre | 20 g/acre | 80 g/acre | 80 g/acre
CC1=C(c2ccccc2)C(=O)N(C(C)(C)c2ccc(Cl)s2)C1 | 10 g/acre | 20 g/acre | 0.625 g/acre | 10 g/acre | 80 g/acre | 10 g/acre
COc1ccc(OC)c(C2=C(C)CN(C(C)(C)c3nc4ccccc4s3)C2=O)c1 | <5 g/acre | 20 g/acre | 80 g/acre | 10 g/acre | 160 g/acre | 160 g/acre
CC1=C(c2ccc(-c3ccccc3)cc2)C(=O)N(C(C)(C)c2nc3ccccc3s2)C1 | <5 g/acre | 80 g/acre | <10 g/acre | 80 g/acre | 160 g/acre | 160 g/acre
CC(C)(c1nc2ccccc2s1)N1CC=C(c2ccccc2)C1=O | 5 g/acre | < 20 g/acre | 0.625 g/acre | 2.5 g/acre | 10 g/acre | 5 g/acre
CC1=C(c2ccc(F)cc2F)C(=O)N(C(C)(C)c2nc3ccccc3s2)C1 | <5 g/acre | 10 g/acre | 1.25 g/acre | > 5 g/acre | 10 g/acre | 10 g/acre
